# From patent US9982011B2, “Legumain activated doxorubicin derivative as well as preparation method and application thereof” (priority 2012, dated 2018)
# Entries after “also recorded” stand apart in the source; their conditions may differ. Counter-ions that a name gives are not always drawn. Starred links: 1 amine or outer side, 2 acyl side, 3 side chain; linkers in the order of their positions; H or OH if unused. Residues, ends and D or L forms follow the SMILES beside them. *: point of attachment. Doxorubicin(3'-N) = COc1cccc2c1C(=O)c1c(O)c3c(c(O)c1C2=O)C[C@@](O)(C(=O)CO)C[C@@H]3O[C@H]1C[C@H](N*)[C@H](O)[C@H](C)O1; Suc = O=C(CCC(=O)[*:2])[*:1]
# What was measured:
# Cathepsin B = Cathepsin B (Homo sapiens, UniProt P07858); assay: In vitro binding to cathepsin absorbed on a 96-well plate (fluorescence of bound drug); details: FIG. 1
# Source text: The R6 group allows the drug to be able to target cathepsin (Cathepsin B) in the tumor microenvironment and inhibit the activity of cathepsin necessary for tumor growth, development and metastasis. […] The R6 group also allows the drug to have an additional function of targeting tumor, thus the drug has two targeted effects.
# The test method was described as follows. Cathepsin was absorbed on a 96-well plate and blocked with BSA. Succinyl-AANL-DOX (SEQ ID NO: 2), S1 and a mixture of S1 and E-64 (an inhibitor for specific binding of cathepsin) were added to allow them to bind to the cathepsin on the 96-well plate. The unbound drugs were removed and the fluorescence of the bound drug was detected.
# [1] = Metabolic half-life in mice blood
# 4T1 cells = assay: Efficacy in 4T1 tumor metastasis (lung) model in BALB/C mice; type: in vivo
# Source text: Test purpose: to investigate the anti-tumor efficacy of S1 and S2 in a tumor metastasis treatment model from BALB/C mice.
# Test drug: S1 and S2 injections, and doxorubicin hydrochloride injection, diluted to corresponding concentrations with physiological saline when testing.
# 1. Animal: BALB/C mice of 6-8 weeks old, all female.
# 1) 4T1 cells were purchased from American type culture collection (ATCC) and identified according the specification provided by ATCC. Cells were cultivated in DMEM culture medium containing 10% fetal bovine serum at 37° C. and 5% CO2. The cells were passaged for every three days and cells within the 15th passage were used.
# 2) Production of tumor metastasis. 10^6 […] were subcutaneously injected to the back of the BALB/C mice. Mice were randomly grouped after the tumor grew to about 1.5 cm. The subcutaneous tumor was removed by surgery and drug treatment began. Mice were killed after anesthesia on day 27. The whole lung was taken out and put into Bouin's solution for staining. The number of the tumor metastasized to lung was counted with anatomical microscope.
# 3) Course of treatment. According to the clinical application of S1 and S2, drugs were intraperitoneally injected. A dose of 10 μmol/kg (<1/10 MTD) was used for the S1 treatment group, 10 μmol/kg (<1/10 MTD) for the S2 treatment group, and 3 μmol/kg (>1/2 MTD) for doxorubicin hydrochloride. The control group was administered with physiological saline. The drugs were administered daily for 8 days.
# BALB/C mice = assay: Maximum tolerated dose (MTD) / acute toxicity of a single injection in mice
# Source text: (§1) Test purpose: to investigate the acute toxicity of the subject new drug formulation via MTD assay by intravenous administration to mice.
# (§2) Test drug: S1 and S2 injections, diluted to the corresponding concentrations with physiological saline when tested.
# (§3) Animal: the first class BALB/C mice, weighing 19-21 g and all mice being female.
# (§4) Method and results: 36 female BALB/C mice weighing 19-21 g were randomly divided into 6 groups according to their body weights, with 6 mice in each group. […] Control tests were performed by injecting 0.2 ml physiological saline or doxorubicin hydrochloride. […] Blood samples were taken on the 3, 5 and 14 days for counting the whole blood cells. Animals were anatomized on day 14 to take the heart, liver, kidney, lung, spleen, and pancreas for HE staining.
# (§5) The MTD for intravenous administration of a test drug is an important reference index for drug toxicity.
# [2] = as above; details: female, BALB/C, mouse, in vivo
# Source text: as §1, §2, §3, §4, §5
# MDA-MB231 cells = assay: Efficacy in MDA-MB231 tumor model in nude mice; type: in vivo
# Source text: Test purpose: to investigate the anti-tumor efficacy of S1 and S2 via mouse tumor treatment model.
# Test drug: S1 and S2 injections, and doxorubicin hydrochloride injection, diluted to corresponding concentrations by physiological saline when testing.
# 1. Animal: nude mice of 6-8 weeks old, all female.
# 1) MDA-MB231 cells were purchased from American type culture collection (ATCC) and identified according the specification provided by ATCC.
# 2) Production of tumor. […] Mice were randomly grouped after the diameter of the tumor reached about 0.3 cm to 0.4 cm. Then treatment began.
# According to the clinical application of S1 and S2, drugs were intraperitoneally injected. A dose of 30 mg/kg (<1/2 MTD) was used for the S1 treatment group, 30 mg/kg (<1/2 MTD) for the S2 treatment group, and 4 mg/kg (>1/2 MTD) for doxorubicin hydrochloride. The control group was administered with physiological saline. The drugs were administered twice weekly for three weeks.
# serum albumin = serum albumin (Mus musculus, UniProt P07724); details: blood taken 10 minutes after intravenous tail injection
# Protocol: Bloods were taken after 10 minutes and centrifuged to obtain serum. The proteins in the serum were precipitated by 70% ethanol.
# [3] = lung, day 27, i.p. daily for 8 days, S1, S2 10 μmol/kg, doxorubicin hydrochloride 3 μmol/kg
# [4] = 10 mg/kg, single injection, 6 female BALB/C mice
# Sequence of serum albumin (P07724 25-608): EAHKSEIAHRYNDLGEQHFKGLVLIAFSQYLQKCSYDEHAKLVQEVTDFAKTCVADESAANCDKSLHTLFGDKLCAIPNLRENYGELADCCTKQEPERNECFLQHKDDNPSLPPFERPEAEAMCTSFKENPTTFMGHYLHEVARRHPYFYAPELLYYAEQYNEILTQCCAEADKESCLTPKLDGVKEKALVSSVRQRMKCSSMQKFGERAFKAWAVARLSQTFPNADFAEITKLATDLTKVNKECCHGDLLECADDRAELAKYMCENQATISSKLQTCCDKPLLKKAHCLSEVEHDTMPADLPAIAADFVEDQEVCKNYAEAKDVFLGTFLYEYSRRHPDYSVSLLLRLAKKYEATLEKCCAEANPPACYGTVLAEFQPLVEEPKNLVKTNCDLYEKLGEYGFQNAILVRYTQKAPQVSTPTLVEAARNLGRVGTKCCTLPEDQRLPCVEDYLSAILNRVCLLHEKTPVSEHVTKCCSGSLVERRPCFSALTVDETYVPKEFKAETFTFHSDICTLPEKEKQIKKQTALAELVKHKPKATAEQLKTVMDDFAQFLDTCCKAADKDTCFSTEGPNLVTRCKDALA
structure (smiles),measurement,setting,value
"CC(C)C[C@H](NC(=O)[C@H]1O[C@@H]1C(=O)O)C(=O)NCCCCN=C(N)N [Example E-64, E-64, reference compound]",Competitive inhibition of the binding of S1 to cathepsin,Cathepsin B; mixture of S1 and E-64,could competitively inhibit the binding of S1; also recorded: binding can be inhibited by cathepsin inhibitor E-64
COc1cccc2c1C(=O)c1c(O)c3c(c(O)c1C2=O)C[C@@](O)(C(=O)CO)C[C@@H]3O[C@@H]1C[C@H](NC(=O)[C@H](CC(C)C)NC(=O)[C@H](CC(N)=O)NC(=O)[C@H](C)NC(=O)[C@H](C)NC(=O)OC(C)(C)C)[C@H](O)[C@H](C)O1 [BOC-AANL-DOX],Metabolic half-life in the mice blood,[1],0.7 h
"COc1cccc2c1C(=O)c1c(O)c3c(c(O)c1C2=O)C[C@@](O)(C(=O)CO)C[C@@H]3O[C@H]1C[C@H](N)[C@H](O)[C@H](C)O1 [doxorubicin hydrochloride, reference compound]",Inhibitory rate on metastasis,4T1 cells; [3],31.4%
same,Number of metastasized tumor,4T1 cells; [3],98 ± 18
same,Metastasis-inhibitory rate,4T1 cells; same method as Test Example 3,31.4%
same,Mortality rate (%),BALB/C mice; [4],100%
same,Number of dead animal,BALB/C mice; [4],6
same,MDA-MB231,"BALB/C mice; Table 4, toxicity by the method of Test Example 1",7 mg/kg
same,MTD at 17 days,[2],4 to 8 µmol/kg
same,"Inhibitory rate of tumor, 20 days","MDA-MB231 cells; 20 days, i.p. twice weekly for three weeks, S1, S2 30 mg/kg, doxorubicin hydrochloride 4 mg/kg",7.4%
same,"Size of tumor (mm^3), 20 days","MDA-MB231 cells; 20 days, i.p. twice weekly for three weeks, S1, S2 30 mg/kg, doxorubicin hydrochloride 4 mg/kg, nude mice",358.7 ± 39.7 mm^3
same,"Inhibitory rate of tumor, 38 days","MDA-MB231 cells; 38 days, i.p. twice weekly for three weeks, S1, S2 30 mg/kg, doxorubicin hydrochloride 4 mg/kg",29.1%
same,"Size of tumor (mm^3), 38 days","MDA-MB231 cells; 38 days, i.p. twice weekly for three weeks, S1, S2 30 mg/kg, doxorubicin hydrochloride 4 mg/kg, nude mice",881.2 ± 86.5 mm^3
same,Tumor-inhibitory rate (day 38),"MDA-MB231 cells; day 38, same method as Test Example 2",29.1%
"COc1cccc2c1C(=O)c1c(O)c3c(c(O)c1C2=O)C[C@@](O)(C(=O)CO)C[C@@H]3O[C@H]1C[C@H](NC(=O)[C@H](CC(C)C)NC(=O)[C@H](CC(N)=O)NC(=O)[C@H](C)NC(=O)[C@H](C)NC(=O)CCC(=O)O)[C@H](O)[C@H](C)O1 [Succinyl-AANL-DOX, reference compound] (Suc-AANL-{Doxorubicin(3'-N)})",Binding to serum albumin / plasma protein in blood,serum albumin,did not bind to serum albumin in the blood plasma
same,Metabolic half-life in the mice blood,[1],37 h
same,Binding to cathepsin,"Cathepsin B; cathepsin absorbed on 96-well plate, blocked with BSA",did not bind to absorbed cathepsin
